# According to the Kinase Knowledgebase extract (Sharma et al. 2016):
# Target: EGFR (human) (UniProt P00533)
# Conditions: not given
# Chain of EGFR (human) (P00533 whole entry, looked up): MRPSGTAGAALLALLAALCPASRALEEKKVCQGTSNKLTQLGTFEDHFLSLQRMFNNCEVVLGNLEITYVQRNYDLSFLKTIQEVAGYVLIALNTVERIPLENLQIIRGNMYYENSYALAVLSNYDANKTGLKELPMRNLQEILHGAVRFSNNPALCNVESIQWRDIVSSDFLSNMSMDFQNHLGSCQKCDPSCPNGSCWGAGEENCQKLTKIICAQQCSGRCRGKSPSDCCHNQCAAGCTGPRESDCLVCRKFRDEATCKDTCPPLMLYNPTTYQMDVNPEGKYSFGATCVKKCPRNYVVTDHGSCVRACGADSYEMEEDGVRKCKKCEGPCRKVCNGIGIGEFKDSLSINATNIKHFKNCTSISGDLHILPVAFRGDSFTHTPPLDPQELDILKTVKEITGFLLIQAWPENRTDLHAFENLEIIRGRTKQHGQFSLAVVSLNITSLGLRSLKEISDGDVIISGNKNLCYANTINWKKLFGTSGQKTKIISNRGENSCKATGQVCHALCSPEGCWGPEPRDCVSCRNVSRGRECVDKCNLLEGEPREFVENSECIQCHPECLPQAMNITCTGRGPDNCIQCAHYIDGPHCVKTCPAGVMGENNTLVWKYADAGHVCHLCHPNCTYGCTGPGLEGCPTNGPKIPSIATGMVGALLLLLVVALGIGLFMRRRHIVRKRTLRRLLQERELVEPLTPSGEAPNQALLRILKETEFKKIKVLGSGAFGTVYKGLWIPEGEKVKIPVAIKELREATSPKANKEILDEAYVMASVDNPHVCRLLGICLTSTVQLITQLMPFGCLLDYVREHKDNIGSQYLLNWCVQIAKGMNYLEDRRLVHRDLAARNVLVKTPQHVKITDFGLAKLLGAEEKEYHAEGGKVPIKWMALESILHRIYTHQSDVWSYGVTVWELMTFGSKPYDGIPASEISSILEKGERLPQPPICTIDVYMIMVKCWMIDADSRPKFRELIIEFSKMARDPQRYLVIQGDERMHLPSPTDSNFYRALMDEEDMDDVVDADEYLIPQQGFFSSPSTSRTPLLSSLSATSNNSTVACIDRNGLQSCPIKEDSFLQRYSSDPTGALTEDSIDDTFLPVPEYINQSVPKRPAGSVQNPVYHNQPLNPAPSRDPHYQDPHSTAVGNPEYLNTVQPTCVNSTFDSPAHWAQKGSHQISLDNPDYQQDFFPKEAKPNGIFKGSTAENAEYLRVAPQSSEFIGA
row,IC50 [nM],Compound
1,11,CS(=O)(=O)CCNCc1cc(-c2ccc3ncnc(Nc4ccc(OCc5cccc(F)c5)c(Cl)c4)c3c2)c[nH]1
2,4,Fc1cccc(COc2ccc(Nc3ncnc4ccc(-c5ccc[nH]5)cc34)cc2Cl)c1
3,7,O=S1(=O)CCC(CNCc2cc(-c3ccc4ncnc(Nc5ccc6c(cnn6Cc6cccc(F)c6)c5)c4c3)c[nH]2)CC1
4,9,Fc1cccc(COc2ccc(Nc3ncnc4ccc(-c5ccn(CCCN6CCCCC6)c5)cc34)cc2Cl)c1
5,20,O=C(NCCN1CCOCC1)c1cn(-c2ccc3ncnc(Nc4ccc(OCc5cccc(F)c5)c(Cl)c4)c3c2)cc1CCO
6,2.6,CS(=O)(=O)CCNCc1ccc(-c2ccc3ncnc(Nc4ccc(OCc5cccc(F)c5)c(Cl)c4)c3c2)[nH]1
7,12,CS(=O)(=O)CCNCc1cccn1-c1ccc2ncnc(Nc3ccc(OCc4cccc(F)c4)c(Cl)c3)c2c1
8,133,CN(C)[C@@H]1CCN(C(=O)Cn2ccc(-c3ccc4ncnc(Nc5ccc(OCc6cccc(F)c6)c(Cl)c5)c4c3)c2)C1

# Target: EGFR (human) (UniProt P00533)
# Conditions: a431
row,IC50 [nM],Compound
1,250,CS(=O)(=O)CCNCc1cc(-c2ccc3ncnc(Nc4ccc(OCc5cccc(F)c5)c(Cl)c4)c3c2)c[nH]1
2,1080,Fc1cccc(COc2ccc(Nc3ncnc4ccc(-c5ccc[nH]5)cc34)cc2Cl)c1
3,1100,O=S1(=O)CCC(CNCc2cc(-c3ccc4ncnc(Nc5ccc6c(cnn6Cc6cccc(F)c6)c5)c4c3)c[nH]2)CC1
4,1980,Fc1cccc(COc2ccc(Nc3ncnc4ccc(-c5ccn(CCCN6CCCCC6)c5)cc34)cc2Cl)c1
5,2360,O=C(NCCN1CCOCC1)c1cn(-c2ccc3ncnc(Nc4ccc(OCc5cccc(F)c5)c(Cl)c4)c3c2)cc1CCO
6,120,CS(=O)(=O)CCNCc1ccc(-c2ccc3ncnc(Nc4ccc(OCc5cccc(F)c5)c(Cl)c4)c3c2)[nH]1
7,270,CS(=O)(=O)CCNCc1cccn1-c1ccc2ncnc(Nc3ccc(OCc4cccc(F)c4)c(Cl)c3)c2c1
8,2590,CN(C)[C@@H]1CCN(C(=O)Cn2ccc(-c3ccc4ncnc(Nc5ccc(OCc6cccc(F)c6)c(Cl)c5)c4c3)c2)C1
9,521,OC(CN1CCC(N2CCCCC2)CC1)Cn1ccc(-c2ccc3ncnc(Nc4ccc5c(cnn5Cc5cccc(F)c5)c4)c3c2)c1 (stereo not drawn)
10,273,OCCC1CCN(CC(O)Cn2ccc(-c3ccc4ncnc(Nc5ccc6c(cnn6Cc6cccc(F)c6)c5)c4c3)c2)CC1 (stereo not drawn)
11,252,OC[C@@H]1CCCN1C[C@@H](O)Cn1ccc(-c2ccc3ncnc(Nc4ccc(OCc5cccc(F)c5)c(Cl)c4)c3c2)c1
12,60,OCCc1cn(-c2ccc3ncnc(Nc4ccc(F)c(Cl)c4)c3c2)cc1CN1CCCC1
13,647,CS(=O)(=O)CCn1ccc(-c2ccc3ncnc(Nc4ccc(OCc5cccc(F)c5)c(Cl)c4)c3c2)c1
14,3320,CCOC(=O)C1CCN(C(=O)Cn2ccc(-c3ccc4ncnc(Nc5ccc(OCc6cccc(F)c6)c(Cl)c5)c4c3)c2)CC1
15,490,O=S1(=O)CCC(CNCc2ccn(-c3ccc4ncnc(Nc5ccc(OCc6cccc(F)c6)c(Cl)c5)c4c3)c2)CC1
16,682,OC(CN1CC[C@@H](F)C1)Cn1ccc(-c2ccc3ncnc(Nc4ccc(OCc5cccc(F)c5)c(Cl)c4)c3c2)c1 (stereo partly drawn)
17,560,CC(Nc1ncnc2ccc(-n3cc(CCO)c(CN4CCCCC4)c3)cc12)c1ccccc1 (stereo not drawn)
18,140,Cc1ccc(Oc2ccc(Nc3ncnc4ccc(-n5cc(CCO)c(C(=O)NCCN6CCCC6)c5)cc34)cc2C)cn1
19,4560,OCc1cc(-c2ccc3ncnc(Nc4ccc(OCc5cccc(F)c5)c(Cl)c4)c3c2)c[nH]1
20,139,NC(=O)C1CCN(CC(O)Cn2ccc(-c3ccc4ncnc(Nc5ccc(OCc6cccc(F)c6)c(Cl)c5)c4c3)c2)CC1 (stereo not drawn)
21,710,Fc1cccc(Cn2ncc3cc(Nc4ncnc5ccc(-c6ccn(CC7CNCCO7)c6)cc45)ccc32)c1 (stereo not drawn)
22,1460,O=S1(=O)CCN(CC(O)Cn2ccc(-c3ccc4ncnc(Nc5ccc(OCc6cccc(F)c6)c(Cl)c5)c4c3)c2)CC1 (stereo not drawn)
23,1220,O=C1CN(CC(O)Cn2ccc(-c3ccc4ncnc(Nc5ccc(OCc6cccc(F)c6)c(Cl)c5)c4c3)c2)CCN1 (stereo not drawn)
24,220,OCCc1cn(-c2ccc3ncnc(Nc4ccc(F)c(Cl)c4)c3c2)cc1CN1CCCCC1
25,853,O=C(Cn1ccc(-c2ccc3ncnc(Nc4ccc(OCc5cccc(F)c5)c(Cl)c4)c3c2)c1)N1CCC(N2CCOCC2)CC1
26,426,Fc1cccc(Cn2ncc3cc(Nc4ncnc5ccc(-c6ccn(CCCN7CCOCC7)c6)cc45)ccc32)c1
27,714,OCCN1CCN(CC(O)Cn2ccc(-c3ccc4ncnc(Nc5ccc(OCc6cccc(F)c6)c(Cl)c5)c4c3)c2)CC1 (stereo not drawn)
28,660,OC1CCN(C[C@H](O)Cn2ccc(-c3ccc4ncnc(Nc5ccc(OCc6cccc(F)c6)c(Cl)c5)c4c3)c2)CC1

row,IC50 [nM],Compound
1,210,CN1CCN(Cc2cn(-c3ccc4ncnc(Nc5ccc(F)c(Cl)c5)c4c3)cc2CCO)CC1
2,560,O=C(NCCCN1CCOCC1)c1cn(-c2ccc3ncnc(Nc4ccc(F)c(Cl)c4)c3c2)cc1CCO
3,714,OC(CNCCN1CCOCC1)Cn1ccc(-c2ccc3ncnc(Nc4ccc5c(cnn5Cc5cccc(F)c5)c4)c3c2)c1 (stereo not drawn)
4,3770,CC(=O)N[C@@H]1CCN(CC(O)Cn2ccc(-c3ccc4ncnc(Nc5ccc(OCc6cccc(F)c6)c(Cl)c5)c4c3)c2)C1 (stereo partly drawn)
5,270,CCOC(=O)N1CCN(CC(O)Cn2ccc(-c3ccc4ncnc(Nc5ccc6c(cnn6Cc6cccc(F)c6)c5)c4c3)c2)CC1 (stereo not drawn)
6,708,O[C@@H](CNC1CC1)Cn1ccc(-c2ccc3ncnc(Nc4ccc(OCc5cccc(F)c5)c(Cl)c4)c3c2)c1
7,443,Fc1cccc(COc2ccc(Nc3ncnc4ccc(-c5ccn(CCN6CCC(N7CCCCC7)CC6)c5)cc34)cc2Cl)c1
8,1490,O=C(Cn1ccc(-c2ccc3ncnc(Nc4ccc(OCc5cccc(F)c5)c(Cl)c4)c3c2)c1)N1CCS(=O)(=O)CC1
9,140,CC(Nc1ncnc2ccc(-n3cc(CCO)c(C(=O)N4CCOCC4)c3)cc12)c1ccccc1 (stereo not drawn)
10,352,Fc1cccc(Cn2ncc3cc(Nc4ncnc5ccc(-c6ccn(CCOC7CCCCO7)c6)cc45)ccc32)c1 (stereo not drawn)
11,889,Fc1cccc(COc2ccc(Nc3ncnc4ccc(-c5ccn(Cc6ccccn6)c5)cc34)cc2Cl)c1
12,582,COCCNCC(O)Cn1ccc(-c2ccc3ncnc(Nc4ccc5c(cnn5Cc5cccc(F)c5)c4)c3c2)c1 (stereo not drawn)
13,384,Fc1cccc(COc2ccc(Nc3ncnc4ccc(-c5ccn(C[C@H]6CCO6)c5)cc34)cc2Cl)c1
14,468,O=S1(=O)CCC(NCC(O)Cn2ccc(-c3ccc4ncnc(Nc5ccc(OCc6cccc(F)c6)c(Cl)c5)c4c3)c2)CC1 (stereo not drawn)
15,2000,CCOC(=O)C1CCN(CC(O)Cn2ccc(-c3ccc4ncnc(Nc5ccc(OCc6cccc(F)c6)c(Cl)c5)c4c3)c2)CC1 (stereo not drawn)
16,553,OC(CN1CCSC1)Cn1ccc(-c2ccc3ncnc(Nc4ccc(OCc5cccc(F)c5)c(Cl)c4)c3c2)c1 (stereo not drawn)
17,1260,Fc1cccc(COc2ccc(Nc3ncnc4ccc(-c5ccn(CCN6CCN(C7CC7)CC6)c5)cc34)cc2Cl)c1
18,462,COC[C@H](O)Cn1ccc(-c2ccc3ncnc(Nc4ccc(OCc5cccc(F)c5)c(Cl)c4)c3c2)c1
19,922,O=S1(=O)CCC(NCC(O)Cn2ccc(-c3ccc4ncnc(Nc5ccc6c(cnn6Cc6cccc(F)c6)c5)c4c3)c2)CC1 (stereo not drawn)
20,481,O=C(Cn1ccc(-c2ccc3ncnc(Nc4ccc(OCc5cccc(F)c5)c(Cl)c4)c3c2)c1)N1CCCC1
21,360,OC(CN1CC[C@@H](O)C1)Cn1ccc(-c2ccc3ncnc(Nc4ccc(OCc5cccc(F)c5)c(Cl)c4)c3c2)c1 (stereo partly drawn)
22,1190,Fc1cccc(COc2ccc(Nc3ncnc4ccc(-c5ccn(CCc6ccccn6)c5)cc34)cc2Cl)c1
23,2860,Fc1cccc(COc2ccc(Nc3ncnc4ccc(-c5ccn(CCN6CCCCC6)c5)cc34)cc2Cl)c1
24,459,OCCN1CCN(CC(O)Cn2ccc(-c3ccc4ncnc(Nc5ccc6c(cnn6Cc6cccc(F)c6)c5)c4c3)c2)CC1 (stereo not drawn)
25,500,O=C(Cn1ccc(-c2ccc3ncnc(Nc4ccc(OCc5cccc(F)c5)c(Cl)c4)c3c2)c1)N1CCSC1
26,1360,OC1CCN(C[C@@H](O)Cn2ccc(-c3ccc4ncnc(Nc5ccc(OCc6cccc(F)c6)c(Cl)c5)c4c3)c2)CC1
27,350,CC(=O)N[C@@H]1CCN(CC(O)Cn2ccc(-c3ccc4ncnc(Nc5ccc6c(cnn6Cc6cccc(F)c6)c5)c4c3)c2)C1 (stereo partly drawn)
